Entries after “also recorded” stand apart in the source; their conditions may differ.
Key:
Format in all cases: in vivo, mouse
LKS+ HSPCs = assay: Multidimensional flow cytometry of BM HSPC regeneration after 5FU; settings: 1 mg/kg IP 6 times over 9 days, vs control
Procedure: (§1) Mice were killed by CO2 asphyxiation and femur, tibia and humeri were dissected free of muscle and tendons and then crushed in DMEM using a mortar and pestle. The resulting cell suspension was filtered through a 70-μm filter and washed in PEB (2 mM EDTA, 0.2% BSA in PBS pH 7.4). Spleens were isolated and then minced prior to grinding through a 70-μm filter to generate single cell suspensions. Lineage negative (Lin^−) cells were purified using a biotinylated lineage cell detection cocktail (Miltenyi Biotec). Lineage depleted cells were then stained with streptavidin-Qdot 605 (eBioscience), Horizon V450-conjugated anti-CD117 (BD Biosciences), PECy7-conjugated Sca-1 (BioLegend), Alexa700-conjugated CD34 (BD Biosciences), APC-conjugated CD135 (Flk2) (BioLegend), and PerCP/Cy5.5-conjugated CD16/32 (FcR). Hematopoietic populations were identified as following: LT-HSCs, LKS^+ CD34^−Flk2^−; ST-HSCs, LKS^+ CD34^+ Flk2^−; MPPs, LKS^+ CD34^+ Flk2^+; CMPs, LKS^− CD34^+ FcRlow; GMPs, LKS^− CD34^+ FcR^+; and MEPs, LKS^− CD34^− FcR^− MEPs. DAPI was used to exclude dead cells during flow cytometric analysis. […] The cell cycle status of LKS^+SLAM cells was analyzed using this same strategy. Analysis gates were set based upon the fluorescence minus one (FMO) fluorophore. […]

[1] = system: LKS+ HSPCs and LKS+SLAM cells; assay: Bi-dimensional cell cycle analysis of BM HSPCs after 5FU; settings: D15 after 5FU, 1 mg/kg IP 6 times over 9 days; vs 5FU only
Procedure: as §1

C57BL/6J mice = assay: Blood count recovery after myelosuppressive 5FU chemotherapy
Procedure: The inventors used 5FU (250 mg/kg, 1 i.p.) for C57BL/6J mice, or 5FU 150 mg/kg (1 i.p.) for mice that had been previously transplanted. To assess blood count recovery, the inventors collected peripheral blood (50 μl) into EDTA-coated capillary tubes (Fisher Scientific). Differential blood counts were measured using an automated Bayer ADVIA 120 Multispecies Hematology Analyzer calibrated for murine blood (Bayer HealthCare).
The inventors treated cohorts of mice with 5FU (250 mg/kg) on day 0 and then with either the TGFβ-neutralizing antibody 1D11 (I) (10 mg/kg) or a non-targeted control antibody 13C4 (C) (10 mg/kg) on days 5, 7 and 9. The 1D11 and 13C4 antibodies were generously provided by Genzyme Corp., Framingham, Mass., USA. Mice were treated with 5FU (250 mg/kg) on day 0 and then received either LY364947 (1 mg/kg, i.p.) or an equal volume of PBS six times over a period of 9 days. Hematopoietic reconstitution was followed by monitoring peripheral blood counts and multidimensional flow cytometry on bone marrow and spleen cells, as indicated.

[2] = 5FU 250 mg/kg D0, 1 mg/kg IP 6 times over 9 days, vs PBS

**Q.** c1ccc(-c2[nH]ncc2-c2ccnc3ccccc23)nc1 [LY364947] was tested. Which “expansion of LKS+SLAM cells” value (LKS+ HSPCs) did it give?
**A.** Its value is “greater expansion”.

**Q.** And the “cycling of LKS+ and LKS+SLAM cells” value [1]?
**A.** The value was “prolonged cycling; also recorded: persisted in cycle”.

**Q.** What about the PLT recovery (C57BL/6J mice; [2]) of the same compound?
**A.** Its PLT recovery is “faster”.

**Q.** And the WBC recovery (C57BL/6J mice; [2])?
**A.** The WBC recovery was “faster”.

**Q.** What about the blood counts recovery (C57BL/6J mice; after 5FU, vs vehicle control) of the same compound?
**A.** Its blood counts recovery is “recovered blood counts more rapidly”.

Source: US9782452B2, “Methods for stimulating hematopoietic recovery by inhibiting TGFβ signaling” (Cornell University, priority 2011, dated 2017)
